Test results from US20250134907A1, “FUSED DIAZEPINES AS AGONISTS OF THE INSULIN-LIKE 3 (INSL3) PEPTIDE RECEPTOR RXFP2 AND METHODS OF USE THEREOF” (The United States of America,as represented by the …, priority 2022, published 2025).

Experiments:
RXFP2 = target: T1, RXFP2 (Homo sapiens, UniProt Q8WXD0); test: HTRF cAMP assay in HEK293T cells stably expressing RXFP2 (HEK-RXFP2); type: cell-based; details: for % EFF vs. 100 nM INSL3 (c): normalized to 100 nM INSL3 cAMP response
T1 construct: expressed in transfected cells
T1 sequence (Q8WXD0 whole entry): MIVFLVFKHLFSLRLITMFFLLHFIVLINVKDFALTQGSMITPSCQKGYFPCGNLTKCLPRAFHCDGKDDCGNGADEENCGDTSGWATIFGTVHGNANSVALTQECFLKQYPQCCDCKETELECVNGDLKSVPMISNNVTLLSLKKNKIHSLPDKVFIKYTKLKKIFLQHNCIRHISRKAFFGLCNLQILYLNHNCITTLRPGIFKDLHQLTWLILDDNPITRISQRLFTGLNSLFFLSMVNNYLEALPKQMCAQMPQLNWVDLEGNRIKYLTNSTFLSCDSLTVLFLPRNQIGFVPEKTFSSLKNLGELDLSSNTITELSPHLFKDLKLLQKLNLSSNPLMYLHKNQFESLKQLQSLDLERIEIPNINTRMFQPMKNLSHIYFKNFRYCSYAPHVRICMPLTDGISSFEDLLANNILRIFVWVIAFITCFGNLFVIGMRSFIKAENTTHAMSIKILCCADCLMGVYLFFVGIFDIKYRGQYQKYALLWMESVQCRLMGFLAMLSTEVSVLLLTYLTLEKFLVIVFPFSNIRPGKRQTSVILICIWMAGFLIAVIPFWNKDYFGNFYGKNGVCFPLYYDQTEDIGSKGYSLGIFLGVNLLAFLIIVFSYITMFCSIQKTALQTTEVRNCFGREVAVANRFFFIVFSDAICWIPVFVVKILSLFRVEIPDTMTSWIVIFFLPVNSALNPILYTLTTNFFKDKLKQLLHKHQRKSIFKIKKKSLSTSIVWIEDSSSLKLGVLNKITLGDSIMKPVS
Procedure, shortened: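 HEK-RXFP2 cells in serum-free DMEM were treated with compound up to 25 μM for 1 h at 37°C, and cAMP was read by HTRF immunoassay. Condition (a): 20,000 cells/well, 200 μM IBMX, normalized to 1 nM INSL3. Condition (b): 10,000 cells/well, 1 nM INSL3. Condition (c): 7,500 cells/well, no IBMX, 100 nM INSL3.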

primary HCO cells = test: OsteoImage mineralization assay in primary HCO cells; type: cell-based, human; details: 14 days
Experimental: The biological activity of the RXFP2 agonists was tested in primary HCO cells (ScienCell Research Laboratories, San Diego, CA) by measuring their ability to induce osteoblast mineralization. A fluorescent-based assay (OSTEOIMAGE™ Mineralization Assay, Lonza, Switzerland) was used that measures hydroxyapatite, which is the main mineral component of bone. For this assay, HCO cells were seeded in 0.1% gelatin-coated 96 well black-walled flat-bottom clear plates at 7,000 cells/well in 100 μL/well of growth medium (DMEM, 10% FBS, 1× Pen/Strep) and allowed to attach overnight at 37° C. and 5% CO2. The next day, growth medium was changed to 100 μL/well of mineralization medium (growth medium+10 mM β-glycerophosphate, 50 μg/ml ascorbic acid, 10 nM dexamethasone), along with the respective treatments. Cells were treated with 1 μL/well of compound (1, 3, or 5 μM) or vehicle (serum-free DMEM, 0.05% DMSO). Medium and treatments were replaced every 2-3 days and cells were incubated at 37° C. and 5% CO2 for 14 days. Hydroxyapatite deposits were evaluated using the OSTEOIMAGE™ Mineralization Assay (Lonza, Switzerland). At treatment day 14, cells were rested 30 minutes at room temperature for equilibration, washed with 200 μL/well PBS, and fixed in 100 μL/well 4% formaldehyde for 15 minutes. Cells were washed once with 200 μL/well assay wash buffer and 100 μL/well of assay staining reagent was added as per manufacturer's protocol. Cells were incubated at room temperature for 30 minutes, protected from light. After staining, cells were washed 3 times with 200 μL/well wash buffer and wells were filled with a final 200 μL/well wash buffer. Mineralization was quantified using a CLARIOstar plate reader (BMG Labtech, Germany) and representative images of the hydroxyapatite bone-like nodules were captured using a fluorescence microscope (Nikon Eclipse TS100 attached to an Olympus DP70 camera). […] Mineralization activity induced by compounds was normalized to DMSO vehicle as 100% mineralization. […]

HEK293T cells = test: CellTiter-Glo cytotoxicity assay in HEK293T cells; type: cell-based, human; details: 24 h, 25 μM and 8.3 μM
Experimental: Cytotoxicity induced by the compounds in HEK293T cells and primary human calvarial osteoblasts (HCO) (ScienCell Research Laboratories, San Diego, CA) were tested using the […]-GLO™ Luminescent Cell Viability Assay (Promega, Madison, WI). This is a luminescence-based assay that determines viable cells by measuring cellular adenosine triphosphate (ATP) production. The luciferase enzyme requires ATP to catalyze the conversion of beetle luciferin to oxyluciferin and light. Thus, luciferase activity is proportional to ATP accumulation in the cells. For this assay, 96-well flat-bottom opaque plates seeded with HEK293T cells at 5,000 cells/well and HCO cells at 3,000 cells/well in 100 μL/well of growth medium (DMEM, 10% FBS, 1× Penicillin/Streptomycin). After incubating overnight at 37° C., 5% CO2 to allow attachment, cells were treated with 1 μL/well of compound (25-0.1 μM) or DMSO vehicle and incubated an additional 24 hours. Then cells were equilibrated for 30 minutes at room temperature and 100 μL/well of […]-GLO™ Reagent was added. Plates were placed on an orbital shaker for 2 minutes and incubated at room temperature for 10 minutes to stabilize the luminescent signal, which was read immediately after on a CLARIOstar plate reader (BMG Labtech, Germany). […] The HEK293T results represent the means±SEM of 3 technical replicates. The HCO results represent the means±SEM of 3 independent experiments.

[1] = condition (c): 7,500 cells/well, IBMX omitted

| activity in the HTRF cAMP screen (RXFP2; compared with Examples 187, 158, 153) | EC50 (RXFP2; condition (b): 10,000 cells/well, IBMX 200 μM) | % EFF vs. 1 nM INSL3 (b) (RXFP2; condition (b): 10,000 cells/well, IBMX 200 μM, normalized to 1 nM INSL3 cAMP response) | EC50 (RXFP2; [1]) | % EFF vs. 100 nM INSL3 (c) (RXFP2; [1]) | Structure (SMILES) | mineralization (hydroxyapatite) vs. DMSO vehicle (primary HCO cells; 1, 3, or 5 μM) | cytotoxicity (HEK293T cells) | mineralization (hydroxyapatite) vs. DMSO vehicle (primary HCO cells; 5 μM) |
| --- | --- | --- | --- | --- | --- | --- | --- | --- |
| weaker activity | 18 to 23.3 nM | 113.66-166.88% | 46.2 to 73.7 nM | 38.35-49.8% | O=C1Nc2ccc(-c3cccc(C(F)(F)F)c3)cc2C(=O)N2CCN(C(=O)COc3ccc(OC(F)(F)F)cc3Br)C[C@@H]12 [Example 123, (S)-2-(2-(2-bromo-4-(trifluoromethoxy)phenoxy)acetyl)-8-(3-(trifluoromethyl)phenyl)-1,3,4,12a-tetrahydrobenzo[e]pyrazino[1,2-a][1,4]diazepine-6,12 (2H, 11H)-dione] | does not seem to increase mineralization | some toxicity |  |
|  |  |  | 167 to 1570 nM | 48.99-81.93% | O=C1Nc2ccc(-c3cc(C(F)(F)F)cc(C(F)(F)F)c3)cc2C(=O)N2CCN(C(=O)COc3ccc(OC(F)(F)F)cc3Br)C[C@@H]12 [Example 158, (S)-8-(3,5-Bis(trifluoromethyl)phenyl)-2-(2-(2-bromo-4-(trifluoromethoxy)phenoxy)acetyl)-1,3,4,12a-tetrahydrobenzo[e]pyrazino[1,2-a][1,4]diazepine-6,12 (2H, 11H)-dione] |  | some toxicity | significant increase |

| Structure (SMILES) | activity in the HTRF cAMP screen (RXFP2; compared with Examples 187, 158, 153) | EC50 (RXFP2; condition (b): 10,000 cells/well, IBMX 200 μM) | % EFF vs. 1 nM INSL3 (b) (RXFP2; condition (b): 10,000 cells/well, IBMX 200 μM, normalized to 1 nM INSL3 cAMP response) | EC50 (RXFP2; [1]) | % EFF vs. 100 nM INSL3 (c) (RXFP2; [1]) | mineralization (hydroxyapatite) vs. DMSO vehicle (primary HCO cells; 1, 3, or 5 μM) | cytotoxicity (HEK293T cells) | mineralization (hydroxyapatite) vs. DMSO vehicle (primary HCO cells; 5 μM) |
| --- | --- | --- | --- | --- | --- | --- | --- | --- |
| O=C1Nc2ccc(-c3cc(C(F)(F)F)cc(C(F)(F)F)c3)cc2C(=O)N2CCN(C(=O)COc3ccc(OC(F)(F)F)cc3I)C[C@@H]12 [Example 187, (S)-8-(3,5-bis(trifluoromethyl)phenyl)-2-(2-(2-iodo-4-(trifluoromethoxy)phenoxy)acetyl)-1,3,4,12a-tetrahydrobenzo[e]pyrazino[1,2-a][1,4]diazepine-6,12 (2H, 11H)-dione] |  |  |  | 128 to 568 nM | 87.28-147.65% |  |  | significant increase |
